Data on three compounds can be found in patent US20210127675A1, “METHOD FOR C[…]-TYPE MULTIDRUG RESISTANT PLANT DISEASES” (priority 2017, published 2021).

For assay [1], the system named is grapes gray mold fungus (Botrytis cinerea). Briefly: Control test against efflux type multidrug resistant grapes gray mold fungus (growth in PDB, absorbance at 600 nm). The following applies: for EC50 value ratio 1: EC50 against resistant strain 1 / EC50 against wild-type strain; for EC50 value ratio 2: EC50 against resistant strain 2 / EC50 against wild-type strain; for EC50 value ratio 3: EC50 against resistant strain 3 / EC50 against wild-type strain; for EC50 value, Efflux type multidrug resistant fungus strain 1: strain 1: ABC transporter-overexpressing (Bc-56, NITE BP-02676); for EC50 value, Efflux type multidrug resistant fungus strain 1 / EC50 value, Efflux type multidrug resistant fungus strain 2 / EC50 value, Efflux type multidrug resistant fungus strain 3 / EC50 value, Wild-type fungus strain: 18° C., 2 days; for EC50 value, Efflux type multidrug resistant fungus strain 2: strain 2: MFS transporter-overexpressing (Bc-107, NITE BP-02678); for EC50 value, Efflux type multidrug resistant fungus strain 3: strain 3: ABC transporter and MFS transporter-overexpressing (Bc-103, NITE BP-02677). It is filed as cell-based. How it is done: (§1) Efficacy=100×(X−Y)/X “Equation 1” • X: Degree of growth of fungus in non-treated group • Y: Degree of growth of fungus in treated group
(§2) EC50 value ratio=EC50 value against efflux type multidrug resistant fungus strain/EC50 value against wild-type fungus strain “Equation 2”
Control Test Against Efflux Type Multidrug Resistant Grapes Gray Mold Fungus (Botrytis cinerea)
Each of the present compound (1), fludioxonil and tolnaftrate was diluted with dimethyl sulfoxide to a prescribed concentration thereof, respectively. Each of the chemical solutions comprising the respective testing compound was dispensed into a titer plate (with 96 wells) in the amount of 1 μL. Thereto was then dispensed 150 μL of a potato dextrose broth (PDB culture media) to which each conidia of grapes gray mold fungi, that is, efflux type multidrug resistant fungus strains (specifically, efflux type multidrug resistant fungus strain 1: ABC transporter-overexpressing fungus strain (fungus strain name: NITE accession number (NITE BP-02676), in-house management codes (Bc-56)); efflux type multidrug resistant fungus strain 2: MFS transporter-overexpressing fungus strain (fungus strain name: NITE accession number (NITE BP-02678), in-house management codes (Bc-107)); and efflux type multidrug resistant fungus strain 3: ABC transporter and MFS transporter-overexpressing fungus strain (fungus strain name: NITE accession number (NITE BP-02677), in-house management codes (Bc-103))) or wild-type fungus strain, respectively, was inoculated in advance. The plate was cultured at 18° C. for 2 days, thereby allowing each grapes gray mold fungus to undergo proliferation, and the absorbance at 600 nm of each well of the titer plate was then measured to determine a degree of growth of each of the grapes gray mold fungi (treated group). On the other hand, each of the groups where the wild-type fungus strain or the efflux type multidrug resistant grapes gray mold fungus strains was grown except that the chemical solution was replaced with dimethyl sulfoxide were made non-treated group, respectively, and then the degree of the growth thereof was examined (non-treated group).
The efficacy was calculated from the degree of the growth by the below-mentioned “Equation 1”, and then each EC50 value of the testing compound, respectively against the efflux type multidrug resistant fungus strains and the wild-type fungus strain was calculated. Also, an EC50 value ratio was calculated by the above-mentioned “Equation 2”.

The subject of assay [2] is wheat Septoria leaf blotch fungus (Zymoseptoria tritici). Briefly: Control test against efflux type multidrug resistant wheat Septoria leaf blotch fungus (growth in PDB, absorbance at 600 nm). It is filed as cell-based. The conditions noted are these: for EC50 value ratio: EC50 against efflux type multidrug resistant strain / EC50 against wild-type strain; for EC50 value, Efflux type multidrug resistant fungus strain: efflux type multidrug resistant fungus strain St 106-6; for EC50 value, Efflux type multidrug resistant fungus strain / EC50 value, Wild-type fungus strain: 18° C., 4 days. The procedure: Control test against Efflux type multidrug resistant wheat Septoria leaf blotch fungus (Zymoseptoria tritici)
Each of the present compound (1) and tolnaftrate was diluted with dimethyl sulfoxide to a prescribed concentration thereof, respectively. Each of the chemical solutions comprising the respective testing compound was dispensed into a titer plate (with 96 wells) in the amount of 1 μL. Thereto was then dispensed 150 μL of a potato dextrose broth (PDB culture media) to which each conidia of wheat Septoria leaf blotch fungus (efflux type multidrug resistant fungus strains) (fungus strain name: St 106-6 as in-house management codes) or wild-type fungus strain, respectively, was inoculated in advance. The plate was cultured at 18° C. for 4 days, thereby allowing each wheat Septoria leaf blotch fungus to undergo proliferation, and the absorbance at 600 nm of each well of the titer plate was then measured to determine a degree of growth of the wheat Septoria leaf blotch fungus (treated group). On the other hand, each of the groups where the wild-type fungus strain or the efflux type multidrug resistant wheat Septoria leaf blotch fungus strain was grown except that the chemical solution was replaced with dimethyl sulfoxide were made non-treated group, respectively, and then the degree of growth thereof was examined (non-treated group).
The efficacy was calculated from the degree of the growth by the below-mentioned “Equation 1”, and then each […] value of the testing compound, respectively against the efflux type multidrug resistant fungus strains and the wild-type fungus strain was calculated. Next, as shown in the below-mentioned “Equation 2”, an EC50 value ratio was calculated by dividing an EC50 value against the efflux type multidrug resistant fungus strains by an EC50 value against the wild-type fungus strain.
as §1, §2

Some results are limits rather than exact numbers.

Turning to `N#Cc1c[nH]cc1-c1cccc2c1OC(F)(F)O2` [Fludioxonil], in assay [1], the “EC50 value ratio 1” value is 23; the “EC50 value ratio 2” value was determined as 14; the “EC50 value ratio 3” value stood at 43; the “EC50 value, Efflux type multidrug resistant fungus strain 1” value amounted to 0.19 ppm. In assay [1], the “EC50 value, Efflux type multidrug resistant fungus strain 2” value was found to be 0.12 ppm; the “EC50 value, Efflux type multidrug resistant fungus strain 3” value worked out at 0.36 ppm; the “EC50 value, Wild-type fungus strain” value is reported as 0.0085 ppm.
For `Cc1nn(C)c(Nc2c(F)cccc2Cl)c1-c1ccc(F)cc1Br` [Present compound (1)], in assay [2], the EC50 value ratio was found to be 1.1; the “EC50 value, Efflux type multidrug resistant fungus strain” value is 0.052 ppm; the “EC50 value, Wild-type fungus strain” value is recorded as 0.048 ppm. In assay [1], the “EC50 value ratio 1” value was 1.7; the “EC50 value ratio 2” value turned out to be 1.6; the “EC50 value ratio 3” value stood at 1.1; the “EC50 value, Efflux type multidrug resistant fungus strain 1” value worked out at 0.11 ppm. In addition, in assay [1], the “EC50 value, Efflux type multidrug resistant fungus strain 2” value came out at 0.11 ppm; the “EC50 value, Efflux type multidrug resistant fungus strain 3” value turned out to be 0.072 ppm; the “EC50 value, Wild-type fungus strain” value is 0.067 ppm.
In the case of `Cc1cccc(N(C)C(=S)Oc2ccc3ccccc3c2)c1` [Tolnaftate], in assay [2], the EC50 value ratio is over 19; the “EC50 value, Efflux type multidrug resistant fungus strain” value is on record as over 10 ppm; the “EC50 value, Wild-type fungus strain” value amounted to 0.51 ppm. Moreover, the EC50 value ratio in assay [2] (listed as tolnaftate) turned out to be 19. In assay [1], the “EC50 value ratio 1” value is recorded as over 4.5; the “EC50 value ratio 2” value was over 4.5; the “EC50 value ratio 3” value is listed as over 4.5; the “EC50 value, Efflux type multidrug resistant fungus strain 1” value is over 10 ppm. In addition, in assay [1], the “EC50 value, Efflux type multidrug resistant fungus strain 2” value is over 10 ppm; the “EC50 value, Efflux type multidrug resistant fungus strain 3” value is over 10 ppm; the “EC50 value, Wild-type fungus strain” value was found to be 2.2 ppm. Also, in assay [1] (listed as tolnaftate), the “EC50 value ratio 1” value is reported as “more than 4.5”, the “EC50 value ratio 2” value is “more than 4.5” and the “EC50 value ratio 3” value is reported as “more than 4.5”.
